{
  "source": "PubChem BioAssay (NCI)",
  "test_in_all_cases": "inhibition of tumour cell growth, NCI panel, 384-well format",
  "key": {"CAKI-1 renal": {"test_system": "CAKI-1 renal"}, "ACHN renal": {"test_system": "ACHN renal"}, "MALME-3M melanoma": {"test_system": "MALME-3M melanoma"}, "NCI-H522 lung": {"test_system": "NCI-H522 lung"}, "PC-3 prostate": {"test_system": "PC-3 prostate"}, "T-47D breast": {"test_system": "T-47D breast"}, "SK-MEL-28 melanoma": {"test_system": "SK-MEL-28 melanoma"}, "EKVX NSCLC": {"test_system": "EKVX NSCLC"}, "NCI-H226 lung": {"test_system": "NCI-H226 lung"}, "HS 578T breast": {"test_system": "HS 578T breast"}, "UACC-257 melanoma": {"test_system": "UACC-257 melanoma"}, "UO-31 renal": {"test_system": "UO-31 renal"}, "HCC-2998 colon": {"test_system": "HCC-2998 colon"}},
  "note": "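The concentration for 50% growth inhibition is given as GI50. TGI marks complete inhibition of growth.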",
  "data": [
    {"smiles": "N=C(N)c1ccc2nc(-c3cc(CC(=O)N[C@@H](CC(=O)O)C(=O)O)cc(-c4cc(S(N)(=O)=O)ccc4O)c3O)[nH]c2c1", "values": [
      {"measurement": "GI50", "setting": "CAKI-1 renal", "result": "> 100", "unit": "µM"},
      {"measurement": "TGI", "setting": "CAKI-1 renal", "result": "> 100", "unit": "µM"},
      {"measurement": "GI50", "setting": "ACHN renal", "result": "> 100", "unit": "µM"},
      {"measurement": "TGI", "setting": "ACHN renal", "result": "> 100", "unit": "µM"},
      {"measurement": "GI50", "setting": "MALME-3M melanoma", "result": "> 100", "unit": "µM"},
      {"measurement": "TGI", "setting": "MALME-3M melanoma", "result": "> 100", "unit": "µM"},
      {"measurement": "GI50", "setting": "NCI-H522 lung", "result": "> 100", "unit": "µM"},
      {"measurement": "TGI", "setting": "NCI-H522 lung", "result": "> 100", "unit": "µM"},
      {"measurement": "GI50", "setting": "PC-3 prostate", "result": "> 100", "unit": "µM"},
      {"measurement": "TGI", "setting": "PC-3 prostate", "result": "> 100", "unit": "µM"},
      {"measurement": "GI50", "setting": "T-47D breast", "result": "> 100", "unit": "µM"},
      {"measurement": "TGI", "setting": "T-47D breast", "result": "> 100", "unit": "µM"},
      {"measurement": "GI50", "setting": "SK-MEL-28 melanoma", "result": "> 100", "unit": "µM"},
      {"measurement": "TGI", "setting": "SK-MEL-28 melanoma", "result": "> 100", "unit": "µM"},
      {"measurement": "GI50", "setting": "EKVX NSCLC", "result": "> 100", "unit": "µM"},
      {"measurement": "TGI", "setting": "EKVX NSCLC", "result": "> 100", "unit": "µM"},
      {"measurement": "GI50", "setting": "NCI-H226 lung", "result": "> 100", "unit": "µM"},
      {"measurement": "TGI", "setting": "NCI-H226 lung", "result": "> 100", "unit": "µM"},
      {"measurement": "GI50", "setting": "HS 578T breast", "result": "> 100", "unit": "µM"},
      {"measurement": "TGI", "setting": "HS 578T breast", "result": "> 100", "unit": "µM"},
      {"measurement": "GI50", "setting": "UACC-257 melanoma", "result": "> 100", "unit": "µM"},
      {"measurement": "TGI", "setting": "UACC-257 melanoma", "result": "> 100", "unit": "µM"},
      {"measurement": "GI50", "setting": "UO-31 renal", "result": "> 100", "unit": "µM"},
      {"measurement": "TGI", "setting": "UO-31 renal", "result": "> 100", "unit": "µM"},
      {"measurement": "GI50", "setting": "HCC-2998 colon", "result": "> 100", "unit": "µM"},
      {"measurement": "TGI", "setting": "HCC-2998 colon", "result": "> 100", "unit": "µM"}
    ]}
  ]
}
